Source: patent publication US20250313820A1, “PEPTIDES WITH MULTIVALENT EFFECTS” (In2Cure AB, priority 2021, published 2025)
Where two headings read alike, the source gives them in different places.

Legend:
erythrocytes (RBCs) = format: cell-based, human
Experimental: (§1) Fresh venous blood from healthy donors was collected in lepirudine tubes (50 μg mL-1). Then 50 μL of blood were transferred to round-bottom 96-wells plate containing 150 μL of peptides previously diluted in RPMI-1640—GlutaMAX-I without phenol red (Gibco). 1:4 diluted blood was used as control. 50 μL of blood mixed with 150 μl 5% Tween-20 were used as positive control. After 1 h incubation at 37° C. and 5% CO2, the plate was centrifuged at 800 g, 150 μL of each sample were transferred to a flat-bottom 96-wells plate and the absorbance at 450 nm was measured. The percentage of hemolysis was calculated following the formula reported below: […]
To evaluate the hemolytic effect of the peptides on erythrocytes the blood was collected as reported above and centrifuged at 250 g for 10 min. Then plasma was discarded, and red blood cells were washed with 150 mM NaCl in 10 mM Tris pH 7.4 for three times. Next, the pellet was dilute 100 times with saline Tris buffer. 100 μL of this solution were added to round-bottom 96-wells plate containing 100 μL of peptides previously diluted in saline Tris buffer. After 1 h incubation at 37° C. and 5% CO2, the plate was centrifuged and the absorbance at 450 nm was measured, then the percentage of erythrocyte lysis was determined using formula reported above.
(§2) Data shown are mean values±SEM obtained from at least four independent experiments all made in triplicate. For each experiment blood from a different donor was used.

whole blood = format: cell-based, human
Experimental: as §1, §2

[1] = biological target: T1, human neutrophil elastase (HNE) (Homo sapiens, UniProt P08246); format: in vitro ADME
T1 construct: purchased Calbiochem, Merk KGaA, Darmstadt, Germany
T1 sequence (P08246 30-267): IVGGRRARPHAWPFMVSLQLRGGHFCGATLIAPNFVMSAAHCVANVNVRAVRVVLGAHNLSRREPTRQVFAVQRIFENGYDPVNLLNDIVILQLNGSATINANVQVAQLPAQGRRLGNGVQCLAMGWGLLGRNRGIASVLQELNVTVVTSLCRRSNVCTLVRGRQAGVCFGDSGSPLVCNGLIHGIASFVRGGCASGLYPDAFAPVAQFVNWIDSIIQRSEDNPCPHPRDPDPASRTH
Experimental: (§7) Peptides were resuspended in endotoxin free water at concentration of 1 mM. […] All digestions were performed in three independent experiments.

[2] = biological target: T2, P. aeruginosa elastase (PE) (Pseudomonas aeruginosa, UniProt P14756); format: in vitro ADME; settings: SDS-PAGE, digestion 0-18 h
T2 construct: purchased Calbiochem, Merk KGaA, Darmstadt, Germany
T2 sequence (P14756 198-498): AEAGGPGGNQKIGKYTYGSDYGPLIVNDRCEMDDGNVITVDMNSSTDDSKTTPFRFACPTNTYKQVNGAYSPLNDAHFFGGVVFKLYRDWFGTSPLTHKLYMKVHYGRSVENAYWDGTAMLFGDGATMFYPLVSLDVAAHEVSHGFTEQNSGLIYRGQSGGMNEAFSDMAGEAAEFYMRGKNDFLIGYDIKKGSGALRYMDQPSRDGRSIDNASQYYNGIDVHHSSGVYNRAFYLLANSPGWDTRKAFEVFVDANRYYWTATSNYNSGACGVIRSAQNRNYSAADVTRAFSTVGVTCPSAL
Experimental: All digestions were performed in three independent experiments.
Two μg of the peptide from each condition were loaded on 10-20% Novex Tricine pre-cast gel from Invitrogen (USA). The run was performed at 100 V for 100 min. The gel was stained by using Coomassie Brilliant blue (Invitrogen, USA). The image has been acquired with a Gel Doc Imager (Bio-Rad Laboratories, USA). Samples from three independent digestions were analysed.

trypsin = biological target: T3, trypsin (Sus scrofa, UniProt P00761); format: in vitro ADME
T3 construct: purchased Promega, Madison, WI, USA
T3 sequence (P00761 9-231): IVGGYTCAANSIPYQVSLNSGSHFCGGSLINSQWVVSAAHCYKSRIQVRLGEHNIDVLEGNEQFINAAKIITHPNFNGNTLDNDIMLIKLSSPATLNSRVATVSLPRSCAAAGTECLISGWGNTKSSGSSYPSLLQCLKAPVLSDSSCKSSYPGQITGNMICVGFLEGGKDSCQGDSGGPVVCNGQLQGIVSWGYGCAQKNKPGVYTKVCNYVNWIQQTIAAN
Experimental: as §7

[3] = test system: proteases (HNE, PE, V8, trypsin); assay: Proteolysis in vitro, fragments by LC-MS/MS
Experimental: as §7

[4] = test system: release of TNF-α in LPS stimulated blood; assay: Whole blood assay with cytokine ELISA: TNF-α; format: cell-based; settings: 25% human blood, 100 ng mL^−1 E. coli LPS, 24 h; read-out: Anti-inflammatory activity: Peptide concentration that reduces by 50% the release of TNF-α in LPS stimulated blood
Experimental: (§3) Fresh venous blood was collected in the presence of lepirudin (50 μg mL^−1) from healthy donors. […] After 24 h incubation at 37° C. in 5% CO2, the plate was centrifuged for 5 min at 1000 g and then the supernatants were collected and stored at −80° C. before analysis. The experiment was performed at least 4 times by using blood from different donors each time. To evaluate the healing properties of the peptides, the blood was stimulated with 100 ng mL^−1 LPS and after 30 min incubation at 37° C. was treated with increasing doses of four peptides. […] Then the blood was stimulated with 100 ng mL^−1 of LPS.
(§4) Plasma obtained from blood experiment was used to evaluate cytokine release. Human inflammation DuoSet® ELISA Kit (R&D Systems) specific for TNF-α and IL-1β was used according to the manufacturer's instructions. Absorbance was measured at a wavelength of 450 nm. Data shown are mean values±SEM obtained from at least four independent experiments all performed in duplicate.
(§5) For each experiment blood from a different donor was used.
(§6) Plasma obtained from blood experiments was used to evaluate cytokine release. […] Absorbance was measured at a wavelength of 450 nm. […]
as §6

[5] = test system: cytokines released from human blood stimulated with E. coli LPS; assay: Whole blood assay, cytokines overall (TNF-α and IL-1β); format: cell-based; settings: 25% blood, 100 ng mL^−1 LPS, peptide added before or together with LPS, 24 h
Experimental: as §3, §4, §5, §6, §6

Compound	hemolytic activity, RBCs or whole blood (heatmaps FIG. 4, FIG. 20a), in words (erythrocytes (RBCs))	Hemolytic activity, lysed RBCs (erythrocytes (RBCs); 1 h) [%]	hemolytic activity in whole blood, in words (whole blood)	Hemolytic activity, lysed RBCs in whole blood (whole blood; 1 h) [%]	stability in the presence of HNE enhanced up to (time) [1]	stability in the presence of PE enhanced up to (time) [2]	intact peptide still detected after trypsin digestion (time) (trypsin) [h]	protection to proteolysis / fragments released (LC-MS/MS) [3]	IC50 [4] [µM]	anti-inflammatory activity in LPS-stimulated blood (TNF-α and IL-1β release), in words [5]	Hemolytic activity, lysed RBCs (erythrocytes (RBCs)) [%]	Hemolytic activity, lysed RBCs in whole blood (whole blood) [%]
CC[C@H](C)[C@H](NC(=O)[C@H](Cc1c[nH]c2ccccc12)NC(=O)[C@H](CCCCN)NC(=O)[C@H](CCCCN)NC(=O)[C@H](CC(C)C)NC(=O)[C@H](CCCNC(=N)N)NC(=O)[C@H](Cc1ccccc1)NC(=O)[C@@H](NC(=O)[C@@H](N)Cc1c[nH]cn1)C(C)C)C(=O)N[C@@]1(C)CCCC=CCCC[C@@](C)(C(=O)N[C@@H](CCC(N)=O)C(=O)N[C@@H](Cc2ccccc2)C(=O)NCC(=O)N[C@@H](CCC(=O)O)C(=O)O)NC(=O)[C@H]([C@@H](C)CC)NC(=O)[C@H](C(C)C)NC(=O)[C@H](CCCCN)NC1=O [sHVF18, HVFRLKKWIXKVIXQFGE]	lower hemolytic activity if compared with sGKY25	35.4 ± 5.9	significantly lower hemolytic activity	<1	up to 18 h	up to 18 h	≥ 18	complete protection to proteolysis	–	–	–	–
cyclo[GKYGE]YTHVFRLKKWIXKVIXQFGE [2sGKY25]	–	–	slightly lower than for sGKY25, but definitely higher than for sHVF18	–	–	–	–	–	8 ± 2.3	better suppression of LPS-induced TNF-α and IL-1β release than GKY25	49.1 ± 13.6	<1
